# Source: US9682976B2, “Protein kinase C inhibitors and uses thereof” (Rigel Pharmaceuticals, Inc., priority 2012, dated 2017)
# System: PKC mediated IL-2 production
# Experiment: IL-2 ELISA, human primary T cell, anti CD3+CD28+
# Assay type: cell-based
# Conditions: Homo sapiens, T-cell, 24 h, human primary T cells stimulated with αCD3 and αCD28, 24 hours
# Procedure, shortened: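 IL-2 was quantified by ELISA in 24 h supernatants from primary human T cells given a 1 h compound pre-treatment at 37° C. These cells had been expanded from blood mononuclear cells on αCD3/αCD28 with IL-2, and the IL-2 was removed by washing. Stimulation used plate-bound αCD3 ([…]) plus αCD28 (5 μg/ml); the counter assay used PMA (0.5 ng/ml) with ionomycin (0.1 uM) instead.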
row,EC50 [nM],SMILES
1,500 to 1000,"Cn1nnn(-c2cc(Nc3ncc(F)c(N[C@@H]4C[C@@H]5CCCN5C(C)(C)C4)n3)c(F)cc2OC2CCOCC2)c1=O [Compound 114, 1-(5-((4-(((7R,8aS)-5,5-dimethyloctahydroindolizin-7-yl)amino)-5-fluoropyrimidin-2-yl)amino)-4-fluoro-2-((tetrahydro-2H-pyran-4-yl)oxy)phenyl)-4-methyl-1,4-dihydro-5H-tetrazol-5-one]"
2,> 10000,"Cc1ccc(Nc2ncc(F)c(N[C@@H]3C[C@@H]4CCCN4C(C)(C)C3)n2)cc1-n1nn[nH]c1=O [Compound 272, 1-(5-(4-((7R,8aS)-octahydro-5,5-dimethylindolizin-7-ylamino)-5-fluoropyrimidin-2-ylamino)-2-methylphenyl)-1H-tetrazol-5(4H)-one]"
3,100 to 500,"CC1(C)C[C@H](Nc2nc(Nc3ccc(OC4COC4)c(C#N)c3)ncc2F)C[C@@H]2CCCN21 [Compound 179, 5-(4-((7R,8aS)-5,5-dimethyloctahydroindolizin-7-ylamino)-5-fluoropyrimidin-2-ylamino)-2-(oxetan-3-yloxy)benzonitrile]"
4,100 to 500,CC1(C)C[C@H](Nc2nc(Nc3ccc(OC4CCNCC4O)c(Cl)c3)ncc2F)C[C@@H]2CCCN21 (stereo partly drawn) [Compound 124]
5,500 to 1000,"Cn1nnn(-c2cc(Nc3ncc(C#N)c(N[C@@H]4C[C@@H]5CCCN5C(C)(C)C4)n3)c(F)cc2OC2CCOCC2)c1=O [Compound 115, 4-(((7R,8aS)-5,5-dimethyloctahydroindolizin-7-yl)amino)-2-((2-fluoro-5-(4-methyl-5-oxo-4,5-dihydro-1H-tetrazol-1-yl)-4-((tetrahydro-2H-pyran-4-yl)oxy)phenyl)amino)pyrimidine-5-carbonitrile]"
6,500 to 1000,"CC1(C)Oc2cc(Nc3ncc(F)c(N[C@@H]4C[C@@H]5CCCN5C(C)(C)C4)n3)ccc2N(CC2CC2)C1=O [Compound 105, 4-(cyclopropylmethyl)-7-((4-(((7R,8aS)-5,5-dimethyloctahydroindolizin-7-yl)amino)-5-fluoropyrimidin-2-yl)amino)-2,2-dimethyl-2H-benzo[b][1,4]oxazin-3(4H)-one]"
7,100 to 500,"CC1(C)C[C@H](Nc2nc(Nc3ccc(OC4CCNCC4)c(OC(F)F)c3)ncc2F)C[C@@H]2CCCN21 [Compound 128, N^2-(3-(difluoromethoxy)-4-(piperidin-4-yloxy)phenyl)-N^4-((7R,8aS)-5,5-dimethyloctahydroindolizin-7-yl)-5-fluoropyrimidine-2,4-diamine]"
8,500 to 1000,"CO[C@@H](C)COc1cc(F)c(Nc2ncc(Cl)c(N[C@@H]3C[C@@H]4CCCN4C(C)(C)C3)n2)cc1-n1nnn(C)c1=O [Compound 238, 1-(5-((5-chloro-4-(((7R,8aS)-5,5-dimethyloctahydroindolizin-7-yl)amino)pyrimidin-2-yl)amino)-4-fluoro-2-((S)-2-methoxypropoxy)phenyl)-4-methyl-1,4-dihydro-5H-tetrazol-5-one]"
9,< 100,C[C@H](CO)Oc1cc(F)c(Nc2ncc(F)c(N[C@@H]3C[C@@H]4CCCN4C(C)(C)C3)n2)cc1-n1nnn(C)c1=O [Compound 99]
10,100 to 500,"Cn1nnn(-c2cc(Nc3ncc(F)c(N[C@@H]4C[C@@H]5CCCN5C(C)(C)C4)n3)c(F)cc2OC2COC2)c1=O [Compound 88, 1-(5-(4-((7R,8aS)-octahydro-5,5-dimethylindolizin-7-ylamino)-5-fluoropyrimidin-2-ylamino)-4-fluoro-2-(oxetan-3-yloxy)phenyl)-4-methyl-1H-tetrazol-5(4H)-one]"

# Same assay, conditions: human primary T cells stimulated with αCD3 and αCD28, 24 hours
row,EC50 [nM],SMILES
1,100 to 500,"CC(C)N1CCC(Oc2ccc(Nc3ncc(F)c(NC4CC5CCCN5C(C)(C)C4)n3)cc2OC(F)F)CC1 (stereo not drawn) [Compound 6, (R/S, S/R, R/R, S/S)-N^2-(4-(1-isopropylpiperidin-4-yloxy)-3-(difluoromethoxy)phenyl)-5-fluoro-N^4-(octahydro-5,5-dimethylindolizin-7-yl)pyrimidine-2,4-diamine]"
2,100 to 500,CC1C(Nc2nc(Nc3cc(N(C)C(=O)N(C)C)c(C4CC4)cc3F)ncc2F)CC(C)(C)N2CCCC12 (stereo not drawn) [Compound 74]
